From publication PMC10367051, “Comprehensive Mechanistic View of the Hydrolysis of Oxadiazole-Based Inhibitors by Histone Deacetylase 6 (HDAC6)” (ACS Chemical Biology, 2023)

Tests used:
HDAC10 = biological target: T1, HDAC10 (Homo sapiens, UniProt Q969S8); assay: HDAC10 inhibition assay (HPLC readout); format: biochemical; conditions: purified human protein, fluorescein-labeled N8-acetylspermidine substrate, 15 min preincubation
T1 construct: made in house; host or cells: HEK293/T17
T1 sequence (Q969S8 1-669): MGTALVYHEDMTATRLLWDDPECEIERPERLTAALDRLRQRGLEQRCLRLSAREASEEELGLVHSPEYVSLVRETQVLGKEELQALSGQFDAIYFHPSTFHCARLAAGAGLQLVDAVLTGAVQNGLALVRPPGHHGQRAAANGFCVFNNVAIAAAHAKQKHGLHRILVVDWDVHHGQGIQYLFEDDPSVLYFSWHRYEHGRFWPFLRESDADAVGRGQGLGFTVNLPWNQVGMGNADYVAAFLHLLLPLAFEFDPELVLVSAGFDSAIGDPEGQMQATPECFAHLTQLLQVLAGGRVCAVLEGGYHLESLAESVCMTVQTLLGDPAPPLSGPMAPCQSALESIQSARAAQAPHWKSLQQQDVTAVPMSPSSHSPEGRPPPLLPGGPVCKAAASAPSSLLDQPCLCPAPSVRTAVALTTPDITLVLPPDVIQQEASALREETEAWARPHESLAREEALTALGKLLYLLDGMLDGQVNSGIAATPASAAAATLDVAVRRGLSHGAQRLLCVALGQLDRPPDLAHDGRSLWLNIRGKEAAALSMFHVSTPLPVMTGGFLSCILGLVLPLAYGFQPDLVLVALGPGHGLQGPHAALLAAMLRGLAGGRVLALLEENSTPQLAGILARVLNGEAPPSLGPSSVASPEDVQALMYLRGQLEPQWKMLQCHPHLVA
Method: Large-scale expression of recombinant human HDACs was carried out as described previously.[32],[37] Briefly, HEK293/T17 cells were transiently transfected with expression pMM222 plasmids comprising N-terminally tagged (TwinStrep-FLAG-HALO tag; Figure S1) HDAC genes using linear poly(ethyleneimine) (PEI, Polysciences Inc.). Cells were harvested three days post-transfection, and cell pellets were resuspended in the lysis buffer (100 mM Tris-HCl, 10 mM NaCl, 5 mM KCl, 2 mM MgCl2, and 10% glycerol at pH 8.0). Cells were disrupted by sonication, cell lysates were cleared by centrifugation, and soluble fusion proteins were first purified by Streptactin affinity chromatography (IBA). For all HDACs but HDACs 1, 10, and 11, the N-terminal tag was cleaved off overnight by the addition of TEV protease (10:1 HDAC/TEV ratio). […]
Optimized fluorometric assays were used to determine inhibition constants of studied compounds against individual HDAC isoforms as described previously.[32] […] Deacetylation reactions were monitored either by high-performance liquid chromatography (HPLC) (HDAC10) or by quantification of released AMC (λex/λem = 365/440 nm) using a CLARIOstar plate reader (BMG Labtech GmbH).

HDAC6(Y745F) mutant = biological target: T2, HDAC6(Y745F) mutant (Danio rerio, UniProt F8W4B7, Y745F); assay: Inhibitor hydrolysis in vitro by HDAC6(Y745F) mutant (LC-MS/MS); format: biochemical; conditions: 30 °C; for hydrolysis by the HDAC6(Y745F) mutant: 20 μM compound, 2 μM enzyme
T2 construct: Danio rerio HDAC6 (amino acids 440–798; zHDAC6); His (N, cleaved yes); MBP (N, cleaved yes); made in house; host or cells: RIPL Escherichia coli
T2 sequence (F8W4B7 440-798 Y745F): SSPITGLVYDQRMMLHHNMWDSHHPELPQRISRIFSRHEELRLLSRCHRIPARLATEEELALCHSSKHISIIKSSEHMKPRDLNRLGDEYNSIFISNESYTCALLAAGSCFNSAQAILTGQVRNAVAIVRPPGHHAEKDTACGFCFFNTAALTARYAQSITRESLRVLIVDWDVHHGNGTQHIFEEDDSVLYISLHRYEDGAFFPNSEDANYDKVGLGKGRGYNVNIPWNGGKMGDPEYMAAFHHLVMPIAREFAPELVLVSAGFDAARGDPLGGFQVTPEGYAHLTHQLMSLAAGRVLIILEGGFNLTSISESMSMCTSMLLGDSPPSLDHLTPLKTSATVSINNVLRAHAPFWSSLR
Method: The zHDAC6 mutants (Y745F and H574A) were constructed using the Quick-change site-directed mutagenesis protocol with the pEC566-zHDAC6 expression plasmid as a template. Both mutants were expressed and purified as described above for wild-type zHDAC6 (Figure S2).
Mass spectrometry quantification of inhibitors/reaction products was carried out with a Shimadzu LCMS-8040 instrument (Shimadzu, HPLC Prominence system). Analytes were separated on a Kinetex XB-C18 2.6 μm, 100 Å column (50 × 2.1 mm; Phenomenex) in a linear 15–60% CH3CN/H2O gradient containing 0.1% formic acid at a flow rate of 0.8 mL min^–1 over 4 min. Multiple reaction monitoring (MRM) parameters were optimized for each analyte, and corresponding major CID fragments were used for quantification. Analytes were quantified using corresponding calibration curves generated from pure compounds dissolved in water.
[…] […] Four microliter aliquots of reaction mixtures were injected into the system directly from the 96-well plate, and inhibitors/reaction products were quantitated as described above.

SMILES | IC50 (HDAC10) [µM] | rate of hydrolysis by the HDAC6(Y745F) mutant relative to wild type (HDAC6(Y745F) mutant; 20 μM 8, 2 μM enzyme) | hydrolysis by the HDAC6(Y745F) mutant (HDAC6(Y745F) mutant)
CS(=O)(=O)N(Cc1ccc(-c2nnc(C(F)(F)F)o2)cn1)c1cccc(Cl)c1 [compound 7] | > 20 | – | –
CS(=O)(=O)N(Cc1ccc(-c2nnc(C(F)F)o2)cn1)c1cccc(Cl)c1 [compound 8] | > 20 | comparable to the wild-type HDAC6 | hydrolyzed
CS(=O)(=O)N(Cc1ccc(C(=O)NNC(=O)C(F)F)cn1)c1cccc(Cl)c1 [compound 6] | – | – | hydrolyzed
